Source: patent US20050209278A1, “Piperidinyl- and piperazinyl-sulfonylmethyl hydroxamic acids and their use as protease inhibitors” (priority 2002, published 2005)
Like-named read-outs stand apart in the source and are kept apart here.

Assays:
MMP-2 = molecular target: T1, MMP-2 (Homo sapiens, UniProt P08253); test: In vitro MMP inhibition, Ki determination (fluorogenic substrate II); assay type: biochemical; conditions: read-out: MMP-2 Ki
T1 construct: made in house; host or cells: MMP-2-transfected p2AHT2 cells
T1 sequence (P08253 110-660): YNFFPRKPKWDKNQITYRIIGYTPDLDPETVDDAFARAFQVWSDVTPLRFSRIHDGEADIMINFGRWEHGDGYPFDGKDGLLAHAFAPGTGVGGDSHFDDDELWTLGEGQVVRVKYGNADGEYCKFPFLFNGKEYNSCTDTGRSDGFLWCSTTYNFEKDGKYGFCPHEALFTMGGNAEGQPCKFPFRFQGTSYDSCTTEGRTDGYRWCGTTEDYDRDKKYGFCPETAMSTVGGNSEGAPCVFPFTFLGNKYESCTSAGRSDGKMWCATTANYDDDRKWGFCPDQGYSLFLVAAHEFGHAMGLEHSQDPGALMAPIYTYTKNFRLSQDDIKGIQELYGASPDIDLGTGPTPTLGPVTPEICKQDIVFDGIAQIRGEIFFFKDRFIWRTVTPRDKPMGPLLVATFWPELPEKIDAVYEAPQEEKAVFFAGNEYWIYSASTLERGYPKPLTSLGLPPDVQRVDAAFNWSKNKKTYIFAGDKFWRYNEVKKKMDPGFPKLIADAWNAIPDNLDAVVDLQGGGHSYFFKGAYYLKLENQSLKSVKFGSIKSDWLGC

MMP-13 = molecular target: T2, MMP-13 (Homo sapiens, UniProt P45452); test: as above; assay type: biochemical; conditions: read-out: MMP-13 Ki
T2 construct: made in house; host or cells: baculovirus / insect cells
Summary of the method: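 Room-temperature, 1 h incubation of APMA-activated recombinant human MMP-13 with 4 μM quenched substrate II (cleaved at Gly-Leu) in pH 7.5 Tris/NaCl/CaCl2 buffer. Inhibition appears as a slowed rise in 330/420 nm fluorescence. Single low enzyme and substrate levels were used for Ki.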

Structure (SMILES)	Ki (MMP-2; value outside parentheses) [nM]	Ki (MMP-13; value outside parentheses) [nM]	Ki (MMP-2; value not in parenthesis) [nM]	Ki (MMP-13; value not in parenthesis) [nM]
Cc1ccc(-c2csc(N3CCN(S(=O)(=O)C4(C(=O)NO)CCOCC4)CC3)n2)cc1 [Example 412]	> 10000	> 10000		
O=C(NO)C1(S(=O)(=O)N2CCN(c3ccc(-c4nn[nH]n4)cc3)CC2)CCOCC1 [Example 419]	27.9	34		
O=C(NO)C1(S(=O)(=O)N2CCC(c3ccc(-c4ccccn4)cn3)CC2)CCOCC1 [Example 409]	24.3	22.3		
CCCCCC/C=C\C1CCN(S(=O)(=O)C2(C(=O)NO)CCOCC2)CC1 [Example 401]	12.8	9.05		
CCCCc1ccc(N2CCN(S(=O)(=O)C3(C(=O)NO)CCOCC3)CC2)nc1 [Example 168]			0.15	0.21
CCCCc1cnc(N2CCN(S(=O)(=O)C3(C(=O)NO)CCOCC3)CC2)nc1 [Example 105]			2.94	1.88
CCC(F)(F)CCc1ccc(C2CCN(S(=O)(=O)C3(C(=O)NO)CCOCC3)CC2)cn1 [Example 411]	15.3	7.75		
Cc1cccc(-c2csc(N3CCN(S(=O)(=O)C4(C(=O)NO)CCOCC4)CC3)n2)c1 [Example 413]	6010	4830		
O=C(NO)C1(S(=O)(=O)N2CCN(c3ncc(-c4ccc(Cl)cc4)cn3)CC2)CCOCC1 [Example 66]			2.52	0.25
O=C(NO)C1(S(=O)(=O)N2CCN(c3nc(-c4ccccc4)cs3)CC2)CCOCC1 [Example 415]	2880	2420		
CCCCc1ccc(C2(O)CCN(S(=O)(=O)C3(C(=O)NO)CCOCC3)CC2)nc1 [Example 420]	181	175		

Continued by falling Ki (MMP-2; value outside parentheses), values first:

Ki (MMP-2; value outside parentheses) [nM]	Ki (MMP-13; value outside parentheses) [nM]	Ki (MMP-2; value not in parenthesis) [nM]	Ki (MMP-13; value not in parenthesis) [nM]	Structure (SMILES)
6.48	11			O=C(NO)C1(S(=O)(=O)N2CCC(c3ccc(N4CCCC4)cn3)CC2)CCOCC1 [Example 408]
4.96	2.47			O=C(NO)C1(S(=O)(=O)N2CCC(COCc3ccc(C(F)(F)F)cc3)CC2)CCOCC1 [Example 403]
4.13	3.84			O=C(NO)C1(S(=O)(=O)N2CCC(c3ccc(-c4cccc(F)c4)cn3)CC2)CCOCC1 [Example 417]
2.23	1.09			CCc1ccc(-c2ccc(C3CCN(S(=O)(=O)C4(C(=O)NO)CCOCC4)CC3)nc2)cc1 [Example 393]
2.07	1.35			Cc1ccc(-c2ccc(C3CCN(S(=O)(=O)C4(C(=O)NO)CCOCC4)CC3)nc2)s1 [Example 416]
1.76	1.28			CCCCCCCOC1CCN(S(=O)(=O)C2(C(=O)NO)CCOCC2)CC1 [Example 406]
1.41	0.33			O=C(NO)C1(S(=O)(=O)N2CCC(COCc3ccc(OC(F)(F)F)cc3)CC2)CCOCC1 [Example 404]
1.31	0.15			O=C(NO)C1(S(=O)(=O)N2CCC(c3ccc(OCc4ccccc4)cn3)CC2)CCOCC1 [Example 398]
1.27	0.18			O=C(NO)C1(S(=O)(=O)N2CCC(COCc3ccc(SC(F)(F)F)cc3)CC2)CCOCC1 [Example 405]
0.97	0.46			O=C(NO)C1(S(=O)(=O)N2CCC(c3ccc(OCCC(F)(F)F)cn3)CC2)CCOCC1 [Example 418]
0.83	0.58			CCCCCC/C=C/C1CCN(S(=O)(=O)C2(C(=O)NO)CCOCC2)CC1 [Example 402]
0.71	0.28			CCCC#Cc1cnc(N2CCN(S(=O)(=O)C3(C(=O)NO)CCOCC3)CC2)s1 [Example 400]
0.69	0.54			CCCCc1ccc(C2CCN(S(=O)(=O)C3(C(=O)NO)CCN(CCOC)CC3)CC2)nc1 [Example 397]
0.55	0.2			CCCCOc1ccc(C2CCN(S(=O)(=O)C3(C(=O)NO)CCOCC3)CC2)nc1 [Example 410]
0.361	0.78			O=C(NO)C1(S(=O)(=O)N2CCC(c3ccc(-c4cccs4)c(F)c3)CC2)CCOCC1 [Example 407]
0.05	0.04			N#Cc1ccc(-c2cnc(N3CCN(S(=O)(=O)C4(C(=O)NO)CCOCC4)CC3)s2)cc1 [Example 399]
